In patent US11274090B2, “P300/CBP HAT inhibitors” (Constellation Pharmaceuticals, Inc., priority 2018, dated 2022):

Target: p300 HAT domain (residues 1287-1666) (Homo sapiens (Human), UniProt Q09472)
Test: p300 HAT SPA assay (scintillation proximity assay, acetylation of biotinylated H3(1-21) peptide)
Assay type: biochemical
Conditions: average of at least 2 replicate titrations
Method: In a typical experiment the p300 HAT inhibitory activity of the compounds described herein was determined in accordance with the following experimental method.
The expressed protein was purified by Ni2+ affinity, followed by anion exchange chromatography. Appropriate fractions were pooled and buffer exchanged into 20 mM Hepes pH 7.5, 150 mM NaCl, and 1 mM TCEP.
35 μL of the reaction volume was transferred to a 384-well streptavidin FlashPlate (PerkinElmer) using a Bravo liquid handler (Velocity 11) and incubated for 1.5 hr at RT. […] Data were analyzed in Genedata to determine inhibitor IC50 values.

Chain of p300 HAT domain (residues 1287-1666) (Q09472 1287-1666): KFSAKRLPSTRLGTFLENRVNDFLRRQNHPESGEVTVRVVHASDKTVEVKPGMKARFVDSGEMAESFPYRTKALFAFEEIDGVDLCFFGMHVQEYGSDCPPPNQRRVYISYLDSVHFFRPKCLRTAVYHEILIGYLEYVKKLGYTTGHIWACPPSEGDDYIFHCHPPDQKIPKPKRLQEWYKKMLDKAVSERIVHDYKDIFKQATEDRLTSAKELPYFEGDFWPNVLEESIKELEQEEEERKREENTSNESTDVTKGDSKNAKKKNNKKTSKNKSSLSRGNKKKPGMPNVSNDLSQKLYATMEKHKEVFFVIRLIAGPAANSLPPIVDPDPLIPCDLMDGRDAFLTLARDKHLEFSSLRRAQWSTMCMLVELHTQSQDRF

Row | IC50 | SMILES
1 | 169 nM | Cn1cc(-c2ccc(NC(=O)C(NCCc3c(F)cc(C#N)cc3F)c3ccccc3)nc2)cn1 (racemic) [86 racemic, (S)- and (R)-2-((4-cyano-2,6-difluorophenEthyl)amino)-N-(5-(1-methyl-1H-pyrazol-4-yl)pyridin-2-yl)-2-phenylacetamide]
2 | 4990 nM | Cn1cc(-c2ccc(NC(=O)[C@@H](NCCc3ccc(C#N)cc3)c3ccccc3)cc2)cn1 (single isomer, unassigned) [1 Isomer 1]
3 | > 5000 nM | CC(CNC(C(=O)Nc1ccc(-c2cnn(C)c2)cc1)c1ccccc1)c1ccc(Cl)cc1 (single isomer, unassigned) [2 Isomer 1]
4 | 2740 nM | CC(CNC(C(=O)Nc1ccc(-c2cnn(C)c2)cc1)c1ccccc1)c1ccc(Cl)cc1 (single isomer, unassigned) [2 Isomer 3]
5 | > 5000 nM | CC(CNC(C(=O)Nc1ccc(-c2cnn(C)c2)cc1)c1ccccc1)c1ccc(Cl)cc1 (single isomer, unassigned) [2 Isomer 4]
6 | 4990 nM | Cn1cc(-c2ccc(NC(=O)C(NCCc3ccc(S(N)(=O)=O)cc3)c3ccccc3)cc2)cn1 (single isomer, unassigned) [4 Isomer 1]
7 | 1370 nM | Cn1cc(-c2ccc(NC(=O)C(NCCc3ccc(S(N)(=O)=O)cc3)c3ccccc3)cc2)cn1 (single isomer, unassigned) [4 Isomer 2]
8 | > 5000 nM | Cn1cc(-c2ccc(NC(=O)[C@@H](NCCc3ccc(Cl)cc3)c3ccccc3)cc2)cn1 (single isomer, unassigned) [5 Isomer 2]
9 | 309 nM | CC(CNC(C(=O)Nc1ccc(-c2cnn(C(C)(C)CO)c2)cn1)c1ccccc1)c1ccc(C#N)cc1 (single isomer, unassigned) [8 Isomer 1]
10 | 1350 nM | CC(CNC(C(=O)Nc1ccc(-c2cnn(C(C)(C)CO)c2)cn1)c1ccccc1)c1ccc(C#N)cc1 (single isomer, unassigned) [8 Isomer 2]
11 | 1230 nM | CC(CNC(C(=O)Nc1ccc(-c2cnn(C(C)(C)CO)c2)cn1)c1ccccc1)c1ccc(C#N)cc1 (single isomer, unassigned) [8 Isomer 3]
12 | 19.6 nM | CC(CNC(C(=O)Nc1ccc(-c2cnn(C(C)(C)CO)c2)cn1)c1ccccc1)c1ccc(C#N)cc1 (single isomer, unassigned) [8 Isomer 4]
13 | > 5000 nM | Cc1cnc(-c2ccc(NC(=O)[C@@H](NCCc3ccc(Cl)cc3)c3ccccc3)cc2)[nH]1 (single isomer, unassigned) [9 Isomer 1]
14 | 133 nM | Cc1cnc(-c2ccc(NC(=O)[C@@H](NCCc3ccc(Cl)cc3)c3ccccc3)cc2)[nH]1 (single isomer, unassigned) [9 Isomer 2]
15 | > 5000 nM | O=C(Nc1ccc(-c2cccnn2)cc1)C(NCCc1ccc(Cl)cc1)c1ccccc1 (single isomer, unassigned) [10 Isomer 1]
16 | 580 nM | O=C(Nc1ccc(-c2cccnn2)cc1)C(NCCc1ccc(Cl)cc1)c1ccccc1 (single isomer, unassigned) [10 Isomer 2]
17 | 279 nM | Cc1cnc(-c2ccc(NC(=O)C(NCCc3ccc(C#N)cc3)c3ccccc3)cc2)[nH]1 (single isomer, unassigned) [11 Isomer 1]
18 | > 5000 nM | Cc1cnc(-c2ccc(NC(=O)C(NCCc3ccc(C#N)cc3)c3ccccc3)cc2)[nH]1 (single isomer, unassigned) [11 Isomer 2]
19 | > 5000 nM | N#Cc1ccc(CCNC(C(=O)Nc2ccc(-c3cccnn3)cc2)c2ccccc2)cc1 (single isomer, unassigned) [12 Isomer 1]
20 | > 2000 nM | Cc1ccc(-c2ccc(NC(=O)C(NCC(C)c3ccc(C#N)cc3)c3ccccc3)nc2)nn1 (single isomer, unassigned) [15 Isomer 1]
21 | > 2000 nM | Cc1ccc(-c2ccc(NC(=O)C(NCC(C)c3ccc(C#N)cc3)c3ccccc3)nc2)nn1 (single isomer, unassigned) [15 Isomer 2]
22 | > 2000 nM | Cc1ccc(-c2ccc(NC(=O)C(NCC(C)c3ccc(C#N)cc3)c3ccccc3)nc2)nn1 (single isomer, unassigned) [15 Isomer 3]
23 | > 5000 nM | Cc1cn(-c2ccc(NC(=O)[C@@H](NCCc3ccc(Cl)cc3)c3ccccc3)cc2)cn1 (single isomer, unassigned) [16 Isomer 2]
24 | > 5000 nM | CN1CCN(c2ccc(NC(=O)[C@@H](NCCc3ccc(Cl)cc3)c3ccccc3)cc2)CC1 (single isomer, unassigned) [17 Isomer 2]
25 | > 5000 nM | Cn1cc(-c2ncc(NC(=O)C(NCCc3ccc(C#N)cc3)c3ccccc3)cn2)cn1 (single isomer, unassigned) [23 Isomer 1]
26 | > 5000 nM | Cn1cc(-c2ncc(NC(=O)C(NCCc3ccc(C#N)cc3)c3ccccc3)cn2)cn1 (single isomer, unassigned) [23 Isomer 2]

Row | IC50 | SMILES
27 | > 5000 nM | COc1cc(-c2cnn(C)c2)ccc1NC(=O)C(NCCc1ccc(C#N)cc1)c1ccccc1 (single isomer, unassigned) [24 Isomer 1]
28 | 607 nM | COc1cc(-c2cnn(C)c2)ccc1NC(=O)C(NCCc1ccc(C#N)cc1)c1ccccc1 (single isomer, unassigned) [24 Isomer 2]
29 | > 5000 nM | COc1cc(NC(=O)C(NCCc2ccc(C#N)cc2)c2ccccc2)ccc1-c1cnn(C)c1 (single isomer, unassigned) [25 Isomer 2]
30 | 1850 nM | Cn1cc(-c2ccc(NC(=O)C(NCCc3ccc(C#N)cc3)c3ccccc3)c(Cl)c2)cn1 (single isomer, unassigned) [26 Isomer 2]
31 | > 5000 nM | Cn1cc(-c2ccc(NC(=O)C(NCCc3ccc(C#N)cc3)c3ccccc3)cc2Cl)cn1 (single isomer, unassigned) [27 Isomer 2]
32 | 22.9 nM | Cn1cc(-c2ccc(NC(=O)C(NCCc3ccc(C#N)cc3F)c3ccccc3)nc2)cn1 (single isomer, unassigned) [29 Isomer 1]
33 | 2760 nM | Cn1cc(-c2ccc(NC(=O)C(NCCc3ccc(C#N)cc3F)c3ccccc3)nc2)cn1 (single isomer, unassigned) [29 Isomer 2]
34 | > 5000 nM | N#Cc1ccc(CCNC(C(=O)Nc2ccn(C3CCOCC3)n2)c2ccccc2)cc1 (single isomer, unassigned) [30 Isomer 1]
35 | > 5000 nM | N#Cc1ccc(CCNC(C(=O)Nc2ccn(C3CCOCC3)n2)c2ccccc2)cc1 (single isomer, unassigned) [30 Isomer 2]
36 | > 2000 nM | COC1CN(c2ccc(NC(=O)C(NCC(C)c3ccc(C#N)cc3)c3ccccc3)nc2)C1 (single isomer, unassigned) [32 Isomer 1]
37 | 18.8 nM | COC1CN(c2ccc(NC(=O)C(NCC(C)c3ccc(C#N)cc3)c3ccccc3)nc2)C1 (single isomer, unassigned) [32 Isomer 2]
38 | > 2000 nM | COC1CN(c2ccc(NC(=O)C(NCC(C)c3ccc(C#N)cc3)c3ccccc3)nc2)C1 (single isomer, unassigned) [32 Isomer 3]
39 | > 2000 nM | COC1CN(c2ccc(NC(=O)C(NCC(C)c3ccc(C#N)cc3)c3ccccc3)nc2)C1 (single isomer, unassigned) [32 Isomer 4]
40 | > 5000 nM | N#Cc1ccc(CCNC(C(=O)Nc2ccc(N3CCCC3)nc2)c2ccccc2)cc1 (single isomer, unassigned) [35 Isomer 1]
41 | > 5000 nM | N#Cc1ccc(CCNC(C(=O)Nc2ccc(N3CCCC3)nc2)c2ccccc2)cc1 (single isomer, unassigned) [35 Isomer 2]
42 | 3270 nM | CN1CCN(c2ccc(NC(=O)C(NCCc3ccc(C#N)cc3)c3ccccc3)cn2)CC1 (single isomer, unassigned) [36 Isomer 1]
43 | > 5000 nM | CN1CCN(c2ccc(NC(=O)C(NCCc3ccc(C#N)cc3)c3ccccc3)cn2)CC1 (single isomer, unassigned) [36 Isomer 2]
44 | 3730 nM | N#Cc1ccc(CCNC(C(=O)Nc2ccc(N3CCCC3)cn2)c2ccccc2)cc1 (single isomer, unassigned) [37 Isomer 2]
45 | 206 nM | N#Cc1ccc(CCNC(C(=O)Nc2ccc(N3CCC(F)(F)CC3)cn2)c2ccccc2)cc1 (single isomer, unassigned) [38 Isomer 1]
46 | > 2000 nM | N#Cc1ccc(CCNC(C(=O)Nc2ccc(N3CCC(F)(F)CC3)cn2)c2ccccc2)cc1 (single isomer, unassigned) [38 Isomer 2]
47 | > 2000 nM | Cc1nc(NC(=O)C(NCC(C)c2ccc(C#N)cc2)c2ccccc2)ccc1-c1cnn(C)c1 (single isomer, unassigned) [39 Isomer 1]
48 | > 2000 nM | Cc1nc(NC(=O)C(NCC(C)c2ccc(C#N)cc2)c2ccccc2)ccc1-c1cnn(C)c1 (single isomer, unassigned) [39 Isomer 2]
49 | 17.7 nM | Cc1nc(NC(=O)C(NCC(C)c2ccc(C#N)cc2)c2ccccc2)ccc1-c1cnn(C)c1 (single isomer, unassigned) [39 Isomer 3]
50 | 304 nM | Cc1nc(NC(=O)C(NCC(C)c2ccc(C#N)cc2)c2ccccc2)ccc1-c1cnn(C)c1 (single isomer, unassigned) [39 Isomer 4]
51 | 190 nM | N#Cc1ccc(CCNC(C(=O)Nc2ccc(N3CCN(CC(F)(F)F)CC3)cn2)c2ccccc2)cc1 (single isomer, unassigned) [40 Isomer 1]
52 | > 5000 nM | N#Cc1ccc(CCNC(C(=O)Nc2ccc(N3CCN(CC(F)(F)F)CC3)cn2)c2ccccc2)cc1 (single isomer, unassigned) [40 Isomer 2]

Row | SMILES | IC50
53 | CC(Cc1ccc(Cl)cc1)NC(C(=O)Nc1ccc(-c2cnn(C)c2)cc1)c1ccccc1 (single isomer, unassigned) [3 Isomer 1] | 196 nM
54 | CC(Cc1ccc(Cl)cc1)NC(C(=O)Nc1ccc(-c2cnn(C)c2)cc1)c1ccccc1 (single isomer, unassigned) [3 Isomer 2] | > 5000 nM
55 | CC(Cc1ccc(Cl)cc1)NC(C(=O)Nc1ccc(-c2cnn(C)c2)cc1)c1ccccc1 (single isomer, unassigned) [3 Isomer 3] | > 5000 nM
56 | CC(Cc1ccc(Cl)cc1)NC(C(=O)Nc1ccc(-c2cnn(C)c2)cc1)c1ccccc1 (single isomer, unassigned) [3 Isomer 4] | 3890 nM
